Data as given in ChEMBL document CHEMBL4346705, “(±)-trans-Dihydronarciclasine and (±)-trans-dihydrolycoricidine analogues modified in their ring A: Evaluation of their anticancer activity and a SAR study” (2019).

What was measured:
Type in all cases: functional
OVCAR-4 = assay: Cytotoxicity against human OVCAR4 cells assessed as growth inhibition after 48 hrs by sulforhodamine B assay; details: OVCAR-4, 48 h
NCI-H522 = assay: Cytotoxicity against human NCI-H522 cells assessed as growth inhibition after 48 hrs by sulforhodamine B assay; details: NCI-H522, 48 h
EKVX = assay: Cytotoxicity against human EKVX cells assessed as growth inhibition after 48 hrs by sulforhodamine B assay; details: for CC50: read-out: LC50 (the source's name)
HOP-62 = assay: Cytotoxicity against human HOP62 cells assessed as growth inhibition after 48 hrs by sulforhodamine B assay; details: HOP-62, 48 h; for CC50: read-out: LC50 (the source's name)
HL-60(TB) = assay: Cytotoxicity against human HL-60(TB) cells assessed as growth inhibition after 48 hrs by sulforhodamine B assay; details: HL-60, 48 h
COLO 205 = assay: Cytotoxicity against human COLO205 cells assessed as growth inhibition after 48 hrs by sulforhodamine B assay; details: COLO 205, 48 h
NCI-H460 = assay: Cytotoxicity against human NCI-H460 cells assessed as growth inhibition after 48 hrs by sulforhodamine B assay; details: NCI-H460, 48 h
LOX IMVI = assay: Cytotoxicity against human LOXIMVI cells assessed as growth inhibition after 48 hrs by sulforhodamine B assay
CAKI-1 = assay: Cytotoxicity against human Caki1 cells assessed as growth inhibition after 48 hrs by sulforhodamine B assay; details: CAKI-1, 48 h; for CC50: read-out: LC50 (the source's name)
UO-31 = assay: Cytotoxicity against human UO31 cells assessed as growth inhibition after 48 hrs by sulforhodamine B assay; details: UO-31, 48 h
HCC 2998 = assay: Cytotoxicity against human HCC2998 cells assessed as growth inhibition after 48 hrs by sulforhodamine B assay; details: HCC 2998, 48 h
MOLT-4 = assay: Cytotoxicity against human MOLT4 cells assessed as growth inhibition after 48 hrs by sulforhodamine B assay; details: MOLT-4, 48 h; for CC50: read-out: LC50 (the source's name)
Hs-578T = assay: Cytotoxicity against human Hs 578T cells assessed as growth inhibition after 48 hrs by sulforhodamine B assay
SF-268 = assay: Cytotoxicity against human SF268 cells assessed as growth inhibition after 48 hrs by sulforhodamine B assay; details: SF-268, 48 h
RPMI-8226 = assay: Cytotoxicity against human RPMI8226 cells assessed as growth inhibition after 48 hrs by sulforhodamine B assay; details: RPMI-8226, 48 h
UACC-62 = assay: Cytotoxicity against human UACC62 cells assessed as growth inhibition after 48 hrs by sulforhodamine B assay; details: UACC-62, 48 h
ACHN = assay: Cytotoxicity against human ACHN cells assessed as growth inhibition after 48 hrs by sulforhodamine B assay
HCT-116 = assay: Cytotoxicity against human HCT116 cells assessed as growth inhibition after 48 hrs by sulforhodamine B assay; details: HCT-116, 48 h
SK-MEL-2 = assay: Cytotoxicity against human SK-MEL-2 cells assessed as growth inhibition after 48 hrs by sulforhodamine B assay; details: SK-MEL-2, 48 h
MDA-MB-231 = assay: Cytotoxicity against human MDA-MB-231 cells assessed as growth inhibition after 48 hrs by sulforhodamine B assay; details: MDA-MB-231, 48 h
HCT-15 = assay: Cytotoxicity against human HCT15 cells assessed as growth inhibition after 48 hrs by sulforhodamine B assay; details: HCT-15, 48 h
Malme-3M = assay: Cytotoxicity against human MALME-3M cells assessed as growth inhibition after 48 hrs by sulforhodamine B assay
OVCAR-5 = assay: Cytotoxicity against human OVCAR5 cells assessed as growth inhibition after 48 hrs by sulforhodamine B assay; details: OVCAR-5, 48 h
BT-549 = assay: Cytotoxicity against human BT549 cells assessed as growth inhibition after 48 hrs by sulforhodamine B assay; details: BT-549, 48 h
HOP-92 = assay: Cytotoxicity against human HOP92 cells assessed as growth inhibition after 48 hrs by sulforhodamine B assay; details: HOP-92, 48 h
SR = assay: Cytotoxicity against human SR cells assessed as growth inhibition after 48 hrs by sulforhodamine B assay; details: for CC50: read-out: LC50 (the source's name)
SF-539 = assay: Cytotoxicity against human SF539 cells assessed as growth inhibition after 48 hrs by sulforhodamine B assay; details: SF-539, 48 h
NCI/ADR-RES = assay: Cytotoxicity against human NCI-ADR-RES cells assessed as growth inhibition after 48 hrs by sulforhodamine B assay; details: for CC50: read-out: LC50 (the source's name)
PC-3 = assay: Cytotoxicity against human PC3 cells assessed as growth inhibition after 48 hrs by sulforhodamine B assay; details: PC-3, 48 h
786-0 = assay: Cytotoxicity against human 786-0 cells assessed as growth inhibition after 48 hrs by sulforhodamine B assay; details: 786-0, 48 h
M14 = assay: Cytotoxicity against human M14 cells assessed as growth inhibition after 48 hrs by sulforhodamine B assay; details: M14, 48 h; for CC50: read-out: LC50 (the source's name)
IGROV-1 = assay: Cytotoxicity against human IGROV1 cells assessed as growth inhibition after 48 hrs by sulforhodamine B assay; details: IGROV-1, 48 h
SW-620 = assay: Cytotoxicity against human SW620 cells assessed as growth inhibition after 48 hrs by sulforhodamine B assay; details: SW-620, 48 h

O=C1NC2C(CC(O)C(O)C2O)c2cc3c(c(O)c21)OCO3 (racemic)
GI50 (OVCAR-4): 55.6 nM | TGI (OVCAR-4): 480 nM | GI50 (NCI-H522): 46.7 nM | TGI (NCI-H522): 310 nM | GI50 (EKVX): 145 nM | TGI (EKVX): 1060 nM | CC50 (EKVX): > 100000 nM | GI50 (HOP-62): 56.8 nM | TGI (HOP-62): 420 nM | CC50 (HOP-62): > 100000 nM | GI50 (HL-60(TB)): 60.1 nM | TGI (HL-60(TB)): 260 nM | GI50 (COLO 205): 50.5 nM | TGI (COLO 205): 210 nM | GI50 (NCI-H460): 43.3 nM | TGI (NCI-H460): 490 nM | GI50 (LOX IMVI): 33.6 nM | TGI (LOX IMVI): 170 nM | GI50 (CAKI-1): 91.3 nM | TGI (CAKI-1): 690 nM | CC50 (CAKI-1): > 100000 nM | GI50 (UO-31): 100 nM | TGI (UO-31): 1090 nM | GI50 (HCC 2998): 57.2 nM | TGI (HCC 2998): 330 nM | GI50 (MOLT-4): 63.6 nM | CC50 (MOLT-4): > 100000 nM | GI50 (Hs-578T): 76.1 nM | TGI (Hs-578T): 510 nM | GI50 (SF-268): 127 nM | TGI (SF-268): 800 nM | GI50 (RPMI-8226): 229 nM | TGI (RPMI-8226): 630 nM | GI50 (UACC-62): 136 nM | TGI (UACC-62): 630 nM | GI50 (ACHN): 97.9 nM | TGI (ACHN): 750 nM | GI50 (HCT-116): 40.4 nM | TGI (HCT-116): 1130 nM | GI50 (SK-MEL-2): 56.1 nM | TGI (SK-MEL-2): 250 nM | GI50 (MDA-MB-231): 100 nM | TGI (MDA-MB-231): 880 nM | GI50 (HCT-15): 85.7 nM | TGI (HCT-15): 1110 nM | GI50 (Malme-3M): 85.9 nM | TGI (Malme-3M): 390 nM | GI50 (OVCAR-5): 170 nM | TGI (OVCAR-5): 1050 nM | GI50 (BT-549): 178 nM | TGI (BT-549): 820 nM | GI50 (HOP-92): 49 nM | TGI (HOP-92): 570 nM | GI50 (SR): 52.2 nM | TGI (SR): > 100000 nM | CC50 (SR): > 100000 nM | GI50 (SF-539): 81.9 nM | TGI (SF-539): 460 nM | GI50 (NCI/ADR-RES): 178 nM | TGI (NCI/ADR-RES): 1560 nM | CC50 (NCI/ADR-RES): > 100000 nM | GI50 (PC-3): 164 nM | TGI (PC-3): 850 nM | GI50 (786-0): 151 nM | TGI (786-0): 1290 nM | GI50 (M14): 52.5 nM | TGI (M14): 220 nM | CC50 (M14): 700 nM | GI50 (IGROV-1): 163 nM | TGI (IGROV-1): 1110 nM | GI50 (SW-620): 54.5 nM | TGI (SW-620): 810 nM

O=C1NC2C(CC(O)C(O)C2O)c2cc3c(c(O)c21)OCCO3 (racemic)
GI50 (OVCAR-4): 209 nM | LC50 (concentration causing 50% net cell kill) (OVCAR-4): > 100000 nM | TGI (OVCAR-4): 820 nM | GI50 (NCI-H522): 147 nM | LC50 (NCI-H522): 7620 nM | TGI (NCI-H522): 730 nM | GI50 (EKVX): 257 nM | TGI (EKVX): 1270 nM | CC50 (EKVX): > 100000 nM | GI50 (HOP-62): 255 nM | TGI (HOP-62): 910 nM | CC50 (HOP-62): 7270 nM | GI50 (HL-60(TB)): 166 nM | LC50 (HL-60(TB)): > 100000 nM | TGI (HL-60(TB)): 590 nM | GI50 (COLO 205): 176 nM | TGI (COLO 205): 410 nM | GI50 (NCI-H460): 154 nM | LC50 (NCI-H460): > 100000 nM | TGI (NCI-H460): 1050 nM | GI50 (LOX IMVI): 180 nM | LC50 (concentration killing 50% of cells) (LOX IMVI): 3580 nM | TGI (LOX IMVI): 530 nM | GI50 (CAKI-1): 586 nM | TGI (CAKI-1): 5470 nM | CC50 (CAKI-1): > 100000 nM | GI50 (UO-31): 316 nM | LC50 (UO-31): > 100000 nM | TGI (UO-31): 2460 nM | GI50 (HCC 2998): 222 nM | LC50 (concentration killing 50% of cells) (HCC 2998): 6310 nM | TGI (HCC 2998): 730 nM | GI50 (MOLT-4): 179 nM | TGI (MOLT-4): 10100 nM | CC50 (MOLT-4): > 100000 nM | GI50 (Hs-578T): 256 nM | LC50 (concentration killing 50% of cells) (Hs-578T): > 100000 nM | TGI (Hs-578T): 940 nM | GI50 (SF-268): 260 nM | LC50 (SF-268): > 100000 nM | TGI (SF-268): 1220 nM | GI50 (RPMI-8226): 265 nM | LC50 (RPMI-8226): > 100000 nM | TGI (RPMI-8226): 1140 nM | GI50 (UACC-62): 261 nM | LC50 (UACC-62): 13000 nM | TGI (UACC-62): 1380 nM | GI50 (ACHN): 297 nM | LC50 (concentration killing 50% of cells) (ACHN): 7730 nM | TGI (ACHN): 1480 nM | GI50 (HCT-116): 77.7 nM | LC50 (HCT-116): > 100000 nM | TGI (HCT-116): 1310 nM | GI50 (SK-MEL-2): 245 nM | TGI (SK-MEL-2): 930 nM | GI50 (MDA-MB-231): 232 nM | LC50 (MDA-MB-231): 13200 nM | TGI (MDA-MB-231): 1160 nM | GI50 (HCT-15): 280 nM | LC50 (50% lethal concentration) (HCT-15): > 100000 nM | TGI (HCT-15): 1910 nM | GI50 (Malme-3M): 190 nM | LC50 (Malme-3M): 5200 nM | TGI (Malme-3M): 710 nM | GI50 (OVCAR-5): 361 nM | LC50 (OVCAR-5): > 100000 nM | TGI (OVCAR-5): 2860 nM | GI50 (BT-549): 260 nM | LC50 (concentration killing 50% of cells) (BT-549): > 100000 nM | TGI (BT-549): 870 nM | GI50 (HOP-92): 110 nM | LC50 (HOP-92): > 100000 nM | TGI (HOP-92): 1010 nM | GI50 (SR): 314 nM | TGI (SR): 36800 nM | CC50 (SR): > 100000 nM | GI50 (SF-539): 228 nM | LC50 (SF-539): 12700 nM | TGI (SF-539): 740 nM | GI50 (NCI/ADR-RES): 596 nM | TGI (NCI/ADR-RES): 5850 nM | CC50 (NCI/ADR-RES): > 100000 nM | GI50 (PC-3): 299 nM | LC50 (PC-3): > 100000 nM | TGI (PC-3): 2140 nM | GI50 (786-0): 254 nM | LC50 (concentration killing 50% of cells) (786-0): > 100000 nM | TGI (786-0): 1610 nM | GI50 (M14): 230 nM | TGI (M14): 1190 nM | CC50 (M14): 5530 nM | GI50 (IGROV-1): 343 nM | LC50 (IGROV-1): > 100000 nM | TGI (IGROV-1): 2680 nM | GI50 (SW-620): 222 nM | LC50 (SW-620): > 100000 nM | TGI (SW-620): 1220 nM
